Assay results from publication PMC12516812 (RSC Advances, 2025).

System: MCF-7, U87, PANC-1 and A549
Test: MTT cytotoxicity assay, average over all tested cancer cell lines
Format: cell-based
Details: Homo sapiens, 72 h, read-out: average IC50 against all tested cell lines

CC1=CC(=O)C(C(C)C)=CC1=O [TQ, Thymoquinone]
IC50: ~32 µM
